Assay results: patent US20130196050A1, “SALTY TASTE ENHANCER” (AJINOMOTO CO., INC., priority 2010, published 2013)

target: T1, ENaC β subunit (Homo sapiens, UniProt P51168); assay: not given; conditions: literature statement; cited from earlier work
T1 sequence (P51168 1-640): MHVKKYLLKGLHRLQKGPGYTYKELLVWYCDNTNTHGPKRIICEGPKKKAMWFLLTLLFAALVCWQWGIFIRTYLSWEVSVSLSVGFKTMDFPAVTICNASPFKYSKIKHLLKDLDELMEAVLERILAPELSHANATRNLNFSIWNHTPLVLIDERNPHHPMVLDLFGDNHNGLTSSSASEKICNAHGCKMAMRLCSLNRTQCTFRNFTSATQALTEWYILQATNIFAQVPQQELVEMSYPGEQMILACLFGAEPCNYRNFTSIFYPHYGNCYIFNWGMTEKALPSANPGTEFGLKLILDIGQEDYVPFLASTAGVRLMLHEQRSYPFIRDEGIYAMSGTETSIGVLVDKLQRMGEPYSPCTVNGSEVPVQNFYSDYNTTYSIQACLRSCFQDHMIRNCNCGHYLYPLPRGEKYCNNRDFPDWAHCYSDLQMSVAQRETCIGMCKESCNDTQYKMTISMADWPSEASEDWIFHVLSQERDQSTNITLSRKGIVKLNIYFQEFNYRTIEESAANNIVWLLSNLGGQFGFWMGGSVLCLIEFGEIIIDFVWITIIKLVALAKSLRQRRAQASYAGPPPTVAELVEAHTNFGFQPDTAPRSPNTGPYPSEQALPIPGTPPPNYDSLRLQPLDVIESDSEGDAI
T1 sequence (P51170 1-649 partner): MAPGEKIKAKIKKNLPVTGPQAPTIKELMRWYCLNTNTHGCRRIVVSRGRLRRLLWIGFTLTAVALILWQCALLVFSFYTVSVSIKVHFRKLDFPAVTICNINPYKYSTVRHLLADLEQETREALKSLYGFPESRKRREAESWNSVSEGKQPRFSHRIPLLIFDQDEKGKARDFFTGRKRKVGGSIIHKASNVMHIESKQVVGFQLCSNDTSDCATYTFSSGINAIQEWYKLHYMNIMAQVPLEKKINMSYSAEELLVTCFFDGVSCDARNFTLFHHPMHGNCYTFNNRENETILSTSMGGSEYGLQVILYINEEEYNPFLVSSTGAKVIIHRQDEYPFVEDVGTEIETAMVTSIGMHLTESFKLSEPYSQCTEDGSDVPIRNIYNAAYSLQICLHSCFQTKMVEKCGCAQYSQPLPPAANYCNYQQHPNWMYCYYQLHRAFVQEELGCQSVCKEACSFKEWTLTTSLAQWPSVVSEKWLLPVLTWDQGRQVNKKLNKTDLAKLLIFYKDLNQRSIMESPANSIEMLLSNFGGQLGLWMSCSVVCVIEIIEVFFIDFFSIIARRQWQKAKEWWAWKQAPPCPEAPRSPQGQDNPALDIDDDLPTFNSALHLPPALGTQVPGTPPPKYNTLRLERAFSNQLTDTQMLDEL
T1 sequence (P37088 1-669 partner): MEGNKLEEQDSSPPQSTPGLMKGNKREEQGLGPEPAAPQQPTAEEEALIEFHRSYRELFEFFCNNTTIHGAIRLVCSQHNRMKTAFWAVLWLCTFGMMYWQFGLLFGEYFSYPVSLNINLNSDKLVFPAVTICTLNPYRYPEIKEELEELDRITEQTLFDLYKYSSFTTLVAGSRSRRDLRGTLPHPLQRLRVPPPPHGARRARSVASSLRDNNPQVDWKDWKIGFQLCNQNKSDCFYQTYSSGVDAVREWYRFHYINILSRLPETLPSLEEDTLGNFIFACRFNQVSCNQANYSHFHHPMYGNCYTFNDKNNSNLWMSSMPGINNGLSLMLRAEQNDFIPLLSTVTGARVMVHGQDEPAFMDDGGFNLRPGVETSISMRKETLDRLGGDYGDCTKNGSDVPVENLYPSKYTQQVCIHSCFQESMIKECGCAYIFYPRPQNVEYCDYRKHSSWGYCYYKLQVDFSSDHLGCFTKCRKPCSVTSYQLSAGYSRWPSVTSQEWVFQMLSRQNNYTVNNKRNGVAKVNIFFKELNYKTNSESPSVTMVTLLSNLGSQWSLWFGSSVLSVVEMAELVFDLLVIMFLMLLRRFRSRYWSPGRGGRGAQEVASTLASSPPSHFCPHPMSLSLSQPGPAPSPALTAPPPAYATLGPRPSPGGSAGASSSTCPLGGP

| Compound | action on ENaC |
| --- | --- |
| Cc1cccc2[nH]cc(SC(CC(C)C)C(=O)NCCO)c12 (stereo not shown) [Example S3969, N-(2-hydroxyethyl)-4-methyl-2-(4-methyl-1H-indol-3-ylthio)pentanamide] | stimulant (activator) of ENaC that acts on β subunit |

target: T2, Human ENaC δ, β and γ subunit (Homo sapiens, UniProt P51168+P51170+P51172); assay: Measurement of ENaC activation potency (two electrode voltage clamp current in ENaC-expressing oocyte); type: cell-based; conditions: lowest concentration increasing the current value by not less than 10% vs before addition
T2 construct: expressed in transfected cells; host or cells: Xenopus laevis (African clawed frog) oocytes injected with cRNA
T2 sequence (P51172 1-638 isoform P51172-1): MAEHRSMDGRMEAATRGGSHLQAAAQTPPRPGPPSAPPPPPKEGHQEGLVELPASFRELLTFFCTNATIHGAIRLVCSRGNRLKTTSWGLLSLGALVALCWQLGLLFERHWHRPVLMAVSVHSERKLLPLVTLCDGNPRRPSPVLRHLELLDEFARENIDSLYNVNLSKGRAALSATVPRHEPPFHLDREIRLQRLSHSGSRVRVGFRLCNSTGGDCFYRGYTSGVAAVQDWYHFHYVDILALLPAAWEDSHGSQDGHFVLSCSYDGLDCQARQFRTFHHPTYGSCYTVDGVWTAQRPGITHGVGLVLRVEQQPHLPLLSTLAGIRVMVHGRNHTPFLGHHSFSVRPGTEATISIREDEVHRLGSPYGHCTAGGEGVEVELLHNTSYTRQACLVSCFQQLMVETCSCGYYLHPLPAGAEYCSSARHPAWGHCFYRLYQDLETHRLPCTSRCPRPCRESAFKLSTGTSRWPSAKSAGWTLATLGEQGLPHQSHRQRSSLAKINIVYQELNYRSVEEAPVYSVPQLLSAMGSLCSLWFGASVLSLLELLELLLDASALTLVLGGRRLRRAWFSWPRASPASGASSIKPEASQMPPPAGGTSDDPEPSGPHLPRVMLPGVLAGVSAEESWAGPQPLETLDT
T2 sequence (P51168 1-640): T1 sequence (P51168 1-640)
T2 sequence (P51170 1-649): T1 sequence (P51170 1-649 partner)
Method: ENaC activation current value, namely, the inward current in ENaC-expressing oocyte was measured as follows.
According to the method described in Motonao Nakamura, Takao Shimizu: Experiment of African clawed frog oocyte, Experimental Medicine Vol. 11, No. 3, 224-232 (1993), oocyte was collected from African clawed frog, […], and the current value was measured by a Two Electrode Voltage Clamp technique. In the present invention, ND96 (96 mM NaCl, 2 mM KCl, 1 mM MgCl2, 5 mM Hepes, 1.8 mM CaCl2, pH 7.6) was used instead of MBS buffer in the above-mentioned document. Injector NANOLITER 2000 manufactured by World Precision Instruments was used for microinjection, OpusXpress 6000A manufactured by Molecular Devices was used for current value measurement by a Two Electrode Voltage Clamp technique, and Clampfit 10.2 software manufactured by Molecular Devices was used for data analysis.
Human ENaC δ, β and γ subunit genes shown by SEQ ID NOs: 1, 2 and 3, respectively, in the Sequence Listing were each cloned into a plasmid vector, and used as a template DNA for cRNA synthesis. cRNA was synthesized using MEGAscript kit manufactured by Ambion and according to the method of the manual of the manufacturer.
A mixture of the same amount of ENaC δ subunit cRNA (0.4 to 0.8 μg/μL), and β and γ subunits cRNA (0.4 μg/μL) was injected into the oocyte of African clawed frog at 27.6 nL per oocyte, and the oocyte was cultured for 16 hours to 72 hours. Thereafter, the oocyte was set on a measuring apparatus OpusXpress 6000A, the electrodes were inserted into the oocyte, the voltage was clamped at a level lower by −30 mV than the resting membrane potential by a Two Electrode Voltage Clamp technique, and the current value was measured.
To measure the ENaC activation potency, oocyte was stimulated with each test compound, and the minimum effective dose (hereinafter to be abbreviated as MED) of the compound at the time point when the electric current started to increase was measured. In this case, the minimum effective dose of the stimulation compound that increased the current value by not less than 10%, as compared to the current value before addition of the compound and without stimulation, was taken as MED. A smaller MED means higher ENaC activation potency.
Each test compound was directly dissolved in ND96, or first dissolved in dimethyl sulfoxide (DMSO) to 100 mM, and then prepared by diluting the solution with ND96 to a concentration used for the evaluation. The concentration of the test compound in ND96 was prepared to various concentrations within the range of 0.1 nM to 300 μm.
ND96 as a perfusion fluid was flowed at a rate of 0.5 mL/min through the measuring apparatus OpusXpress 6000A on which ENaC-expressing oocyte was set, the perfusion fluid was temporarily stopped every 3 minutes to add a test compound solution (0.25 mL) dissolved in ND96 at a rate of 0.5 mL/minute. In this way, the test compound was contacted with ENaC-expressing oocyte, and whether ENaC is activated by the compound was examined by measuring the current value. After addition of the test compound, feeding of the perfusion fluid was resumed to wash away the compound to be ready for the next addition of the compound.
The compound was added successively from a low concentration to a high concentration to stimulate ENaC-expressing oocyte. The concentrations actually added was, for example, 1 nM, 3 nM, 10 nM, 30 nM, 100 nM, 300 nM; 1 μM, 3 μM, 10 μm, 30 μm, 100 μm, 300 μm; 1.2 μM, 6 μM, 30 μm, 150 μm of one test compound. The compound was added from low concentrations to high concentrations at 3 minute intervals. The first compound was added from a low concentration to a high concentration, then the second and the third compounds were similarly added successively to the same oocyte, and changes in the current value were measured. The current value was continuously measured from the start to the end of the experiment. […]

| Compound | MED value (minimum effective dose) |
| --- | --- |
| Cc1cc(O)c(C(=O)N[C@@H](CCc2ccccc2)C(=O)O)c(O)c1 [Example 117] | 0.3 µM |
| COC(=O)[C@H](Cc1ccccc1)NC(=O)c1c(O)cc(C)cc1O [Example 118] | 10 µM |
| N[C@@H](Cc1c[nH]c2ccccc12)C(=O)Nc1ccccc1S(=O)(=O)O [Example 119] | 0.3 µM |
| COC(=O)[C@H](Cc1c[nH]c2ccccc12)NC(=O)c1c(O)cc(O)cc1O [Example 120] | 0.3 µM |
| O=C(N[C@@H](Cc1c[nH]c2ccccc12)C(=O)O)c1c(O)cc(O)cc1O [Example 121] | 3 µM |
| COC(=O)[C@H](Cc1ccccc1)NC(=O)c1c(O)cc(O)cc1O [Example 122] | 1 µM |
| O=C(N[C@@H](Cc1ccccc1)C(=O)O)c1c(O)cc(O)cc1O [Example 123] | 10 µM |
| Cc1cc(O)c(C(=O)NCCc2c[nH]c3ccccc23)c(O)c1 [Example 124] | 3 µM |
| O=C(NCCc1c[nH]c2ccccc12)c1c(O)cc(O)cc1O [Example 125] | 1 µM |
